According to PMC9518264, “Design and synthesis of novel quinazolinone-based derivatives as EGFR inhibitors with antitumor activity” (Journal of Enzyme Inhibition and Medicinal Chemistry, 2022):

Assays:
[1] = tested on: OVCAR-3; assay: NCI 60 cell line antiproliferative screening (SRB), Ovarian cancer; conditions: Homo sapiens, OVCAR-3, read-out: growth inhibition % (GI%)
[2] = tested on: PC-3; assay: cells; type: cell-based; conditions: Homo sapiens; PC-3; 10 μM; read-out: growth inhibition % (GI%)
[3] = tested on: NCI-H322M; assay: cells; type: cell-based; conditions: Homo sapiens, 10 μM, read-out: growth inhibition % (GI%)
[4] = tested on: OVCAR-8; assay: cells; type: cell-based; conditions: Homo sapiens; OVCAR-8; 10 μM; read-out: growth inhibition % (GI%)
[5] = tested on: MCF7; assay: cells; type: cell-based; conditions: Homo sapiens; MCF7; 10 μM; read-out: growth inhibition % (GI%)
[6] = tested on: COLO-205; assay: cells; type: cell-based; conditions: Homo sapiens; COLO-205; 10 μM; read-out: growth inhibition % (GI%)
[7] = tested on: MDA-MB-435; assay: cells; type: cell-based; conditions: Homo sapiens; MDA-MB-435; 10 μM; read-out: growth inhibition % (GI%)
[8] = tested on: SF-268; assay: cells; type: cell-based; conditions: Homo sapiens; SF-268; 10 μM; read-out: growth inhibition % (GI%)
[9] = tested on: K-562; assay: cells; type: cell-based; conditions: Homo sapiens, K562; K-562; 10 μM; read-out: growth inhibition % (GI%)
[10] = tested on: SF-539; assay: cells; type: cell-based; conditions: Homo sapiens; SF-539; 10 μM; read-out: growth inhibition % (GI%)
[11] = tested on: NCI-H522; assay: cells; type: cell-based; conditions: Homo sapiens; NCI-H522; 10 μM; read-out: growth inhibition % (GI%)
[12] = tested on: EKVX; assay: cells; type: cell-based; conditions: Homo sapiens, 10 μM, read-out: growth inhibition % (GI%)
[13] = tested on: A549/ATCC; assay: cells; type: cell-based; conditions: Homo sapiens; A549/ATCC; 10 μM; read-out: growth inhibition % (GI%)
[14] = tested on: UACC-257; assay: cells; type: cell-based; conditions: Homo sapiens; UACC-257; 10 μM; read-out: growth inhibition % (GI%)
[15] = tested on: SR; assay: cells; type: cell-based; conditions: Homo sapiens, 10 μM, read-out: growth inhibition % (GI%)
[16] = tested on: UACC-62; assay: cells; type: cell-based; conditions: Homo sapiens; UACC-62; 10 μM; read-out: growth inhibition % (GI%)
[17] = tested on: NCI/ADR-RES; assay: cells; type: cell-based; conditions: Homo sapiens, 10 μM, read-out: growth inhibition % (GI%)
[18] = tested on: SK-MEL-5; assay: cells; type: cell-based; conditions: Homo sapiens; SK-MEL-5; 10 μM; read-out: growth inhibition % (GI%)
[19] = tested on: T-47D; assay: cells; type: cell-based; conditions: Homo sapiens, T47D; T-47D; 10 μM; read-out: growth inhibition % (GI%)
[20] = tested on: SF-295; assay: cells; type: cell-based; conditions: Homo sapiens; SF-295; 10 μM; read-out: growth inhibition % (GI%)
[21] = tested on: MOLT-4; assay: cells; type: cell-based; conditions: Homo sapiens; MOLT-4; 10 μM; read-out: growth inhibition % (GI%)
[22] = tested on: NCI-H460; assay: cells; type: cell-based; conditions: Homo sapiens; NCI-H460; 10 μM; read-out: growth inhibition % (GI%)
[23] = tested on: HT29; assay: cells; type: cell-based; conditions: Homo sapiens, HT-29; HT29; 10 μM; read-out: growth inhibition % (GI%)
[24] = tested on: SNB-19; assay: cells; type: cell-based; conditions: Homo sapiens; SNB-19; 10 μM; read-out: growth inhibition % (GI%)
[25] = tested on: KM12; assay: cells; type: cell-based; conditions: Homo sapiens; KM12; 10 μM; read-out: growth inhibition % (GI%)
[26] = tested on: HCT-15; assay: cells; type: cell-based; conditions: Homo sapiens; HCT-15; 10 μM; read-out: growth inhibition % (GI%)
[27] = tested on: HCC-2998; assay: cells; type: cell-based; conditions: Homo sapiens; HCC-2998; 10 μM; read-out: growth inhibition % (GI%)
[28] = tested on: HCT-116; assay: cells; type: cell-based; conditions: Homo sapiens; HCT-116; 10 μM; read-out: growth inhibition % (GI%)
[29] = tested on: SK-OV-3; assay: cells; type: cell-based; conditions: Homo sapiens; SK-OV-3; 10 μM; read-out: growth inhibition % (GI%)
[30] = tested on: SK-MEL-2; assay: cells; type: cell-based; conditions: Homo sapiens; SK-MEL-2; 10 μM; read-out: growth inhibition % (GI%)
[31] = tested on: HS 578T; assay: cells; type: cell-based; conditions: Homo sapiens; HS 578T; 10 μM; read-out: growth inhibition % (GI%)
[32] = tested on: OVCAR-4; assay: cells; type: cell-based; conditions: Homo sapiens; OVCAR-4; 10 μM; read-out: growth inhibition % (GI%)
[33] = tested on: BT-549; assay: cells; type: cell-based; conditions: Homo sapiens; BT-549; 10 μM; read-out: growth inhibition % (GI%)
[34] = tested on: SNB-75; assay: cells; type: cell-based; conditions: Homo sapiens; SNB-75; 10 μM; read-out: growth inhibition % (GI%)
[35] = tested on: MALME-3M; assay: cells; type: cell-based; conditions: Homo sapiens; MALME-3M; 10 μM; read-out: growth inhibition % (GI%)
[36] = tested on: panel of 60 tumour cell lines; assay: NCI 60 cell line antiproliferative screening (SRB), whole panel or subpanels (means, ranges, words); type: cell-based, human; conditions: for antiproliferative activity against all tested cell lines: 10 μM single dose; for inhibition at 10 µM: Homo sapiens, 60 cell, mean over the cell line panel, read-out: Mean growth inhibition % (mean GI%)
[37] = tested on: U251; assay: cells; type: cell-based; conditions: Homo sapiens, U-251; U251; 10 μM; read-out: growth inhibition % (GI%)
[38] = tested on: LOX IMIV; assay: cells; type: cell-based; conditions: Homo sapiens, 60 cell; LOX IMIV; 10 μM; read-out: growth inhibition % (GI%)
[39] = tested on: RPMI-8226; assay: cells; type: cell-based; conditions: Homo sapiens; RPMI-8226; 10 μM; read-out: growth inhibition % (GI%)
[40] = tested on: SN12C; assay: cells; type: cell-based; conditions: Homo sapiens, 10 μM, read-out: growth inhibition % (GI%)
[41] = tested on: UO-31; assay: cells; type: cell-based; conditions: Homo sapiens; UO-31; 10 μM; read-out: growth inhibition % (GI%)
[42] = tested on: NCI-H226; assay: cells; type: cell-based; conditions: Homo sapiens; NCI-H226; 10 μM; read-out: growth inhibition % (GI%)
[43] = tested on: A498; assay: cells; type: cell-based; conditions: Homo sapiens; A498; 10 μM; read-out: growth inhibition % (GI%)
[44] = tested on: IGROV1; assay: cells; type: cell-based; conditions: Homo sapiens, IGROV-1; IGROV1; 10 μM; read-out: growth inhibition % (GI%)
[45] = tested on: CCRF-CEM; assay: cells; type: cell-based; conditions: Homo sapiens, 10 μM, read-out: growth inhibition % (GI%)
[46] = tested on: TK-10; assay: cells; type: cell-based; conditions: Homo sapiens; TK-10; 10 μM; read-out: growth inhibition % (GI%)
[47] = tested on: HOP-92; assay: cells; type: cell-based; conditions: Homo sapiens; HOP-92; 10 μM; read-out: growth inhibition % (GI%)

`O=C(CSc1nc2ccccc2c(=O)n1-c1ccccc1)NN=Cc1ccc(N2CCOCC2)cc1` [6h, N'-(4-morpholinobenzylidene)-2-((4-oxo-3-phenyl-3,4-dihydroquinazolin-2-yl)thio)acetohydrazide] was tested, and the inhibition at 10 µM [1] was less than 15%, the inhibition at 10 µM [2] was less than 15% and the inhibition at 10 µM [3] was less than 15%. The inhibition at 10 µM [4] was less than 15%, the inhibition at 10 µM [5] was less than 15% and the inhibition at 10 µM [6] was less than 15%. The inhibition at 10 µM [7] was less than 15%, the inhibition at 10 µM [8] was less than 15% and the inhibition at 10 µM [9] was less than 15%. The inhibition at 10 µM [10] was less than 15%, the inhibition at 10 µM [11] was less than 15% and the inhibition at 10 µM [12] was less than 15%. It also gave an inhibition at 10 µM [13] of less than 15%, an inhibition at 10 µM [14] of less than 15% and an inhibition at 10 µM [15] of less than 15%. For the same compound, the inhibition at 10 µM [16] was less than 15%, the inhibition at 10 µM [17] was less than 15% and the inhibition at 10 µM [18] was less than 15%. It also gave an inhibition at 10 µM [19] of less than 15%, an inhibition at 10 µM [20] of less than 15% and an inhibition at 10 µM [21] of less than 15%. It also gave an inhibition at 10 µM [22] of less than 15%, an inhibition at 10 µM [23] of less than 15% and an inhibition at 10 µM [24] of less than 15%. The inhibition at 10 µM [25] was less than 15%, the inhibition at 10 µM [26] was less than 15% and the inhibition at 10 µM [27] was less than 15%. It also gave an inhibition at 10 µM [28] of less than 15%, an inhibition at 10 µM [29] of less than 15% and an inhibition at 10 µM [30] of less than 15%. The inhibition at 10 µM [31] was less than 15%, the inhibition at 10 µM [32] was less than 15% and the inhibition at 10 µM [33] was less than 15%. The inhibition at 10 µM [34] was less than 15%, the inhibition at 10 µM [35] was less than 15% and the “antiproliferative activity against all tested cell lines” value [36] was “did not show activity”. For the same compound, the inhibition at 10 µM [36] was less than 0%, the inhibition at 10 µM [37] was less than 15% and the inhibition at 10 µM [38] was less than 15%. For the same compound, the inhibition at 10 µM [39] was less than 15%, the inhibition at 10 µM [40] was less than 15% and the inhibition at 10 µM [41] was less than 15%. It also gave an inhibition at 10 µM [42] of less than 15%, an inhibition at 10 µM [43] of 15.8% and an inhibition at 10 µM [44] of less than 15%. The inhibition at 10 µM [45] was less than 15%, the inhibition at 10 µM [46] was less than 15% and the inhibition at 10 µM [47] was 18.7%.
With `CN1CCN(c2ccc(C=NNC(=O)CSc3nc4ccccc4c(=O)n3-c3ccccc3)cc2)CC1` [6i, N'-(4–(4-methylpiperazin-1-yl)benzylidene)-2-((4-oxo-3-phenyl-3,4-dihydroquinazolin-2-yl)thio) acetohydrazide] the inhibition at 10 µM [1] was less than 15%, the inhibition at 10 µM [2] was less than 15% and the inhibition at 10 µM [3] was less than 15%. The inhibition at 10 µM [4] was less than 15%, the inhibition at 10 µM [5] was less than 15% and the inhibition at 10 µM [6] was less than 15%. For the same compound, the inhibition at 10 µM [7] was less than 15%, the inhibition at 10 µM [8] was less than 15% and the inhibition at 10 µM [9] was less than 15%. It also gave an inhibition at 10 µM [10] of less than 15%, an inhibition at 10 µM [11] of less than 15% and an inhibition at 10 µM [12] of less than 15%. For the same compound, the inhibition at 10 µM [13] was less than 15%, the inhibition at 10 µM [14] was less than 15% and the inhibition at 10 µM [15] was less than 15%. The inhibition at 10 µM [16] was less than 15%, the inhibition at 10 µM [17] was less than 15% and the inhibition at 10 µM [18] was less than 15%. For the same compound, the inhibition at 10 µM [19] was less than 15%, the inhibition at 10 µM [20] was less than 15% and the inhibition at 10 µM [21] was less than 15%. It also gave an inhibition at 10 µM [22] of less than 15%, an inhibition at 10 µM [23] of less than 15% and an inhibition at 10 µM [24] of less than 15%. It also gave an inhibition at 10 µM [25] of less than 15%, an inhibition at 10 µM [26] of less than 15% and an inhibition at 10 µM [27] of less than 15%. For the same compound, the inhibition at 10 µM [28] was less than 15%, the inhibition at 10 µM [29] was less than 15% and the inhibition at 10 µM [30] was less than 15%. For the same compound, the inhibition at 10 µM [31] was less than 15%, the inhibition at 10 µM [32] was less than 15% and the inhibition at 10 µM [33] was less than 15%. For the same compound, the inhibition at 10 µM [34] was less than 15%, the inhibition at 10 µM [35] was less than 15% and the “antiproliferative activity against all tested cell lines” value [36] was “did not show activity”. It also gave an inhibition at 10 µM [36] of less than 0%, an inhibition at 10 µM [37] of less than 15% and an inhibition at 10 µM [38] of less than 15%. It also gave an inhibition at 10 µM [39] of less than 15%, an inhibition at 10 µM [40] of less than 15% and an inhibition at 10 µM [41] of less than 15%. For the same compound, the inhibition at 10 µM [42] was less than 15%, the inhibition at 10 µM [43] was 10.2% and the inhibition at 10 µM [44] was less than 15%. The inhibition at 10 µM [45] was less than 15%, the inhibition at 10 µM [46] was less than 15% and the inhibition at 10 µM [47] was less than 15%.
